Assay results taken from ChEMBL document CHEMBL5233222, “Bridging free radical chemistry with drug discovery: A promising way for finding novel drugs efficiently” (Eur J Med Chem, 2020).

Experiment: Inhibition of AAPH-induced hemolysis of human erythrocytes
Format: functional, cell-based
Details: erythrocyte

| Compound | IC50 [nM] |
| --- | --- |
| CC(C)=CCC[C@](C)(O[C@@H]1O[C@H](CO[C@@H]2O[C@H](CO)[C@@H](O)[C@H](O)[C@H]2O)[C@@H](O)[C@H](O)[C@H]1O)[C@H]1CC[C@]2(C)[C@@H]1[C@H](O)C[C@@H]1[C@@]3(C)CC[C@H](O[C@@H]4O[C@H](CO)[C@@H](O)[C@H](O)[C@H]4O[C@@H]4O[C@H](CO)[C@@H](O)[C@H](O)[C@H]4O)C(C)(C)[C@@H]3CC[C@]12C [GINSENOSIDE RB1] | 3180 |
| CC(C)=CCC[C@](C)(O[C@@H]1O[C@H](CO[C@@H]2OC[C@@H](O)[C@H](O)[C@H]2O)[C@@H](O)[C@H](O)[C@H]1O)[C@H]1CC[C@]2(C)[C@@H]1[C@H](O)C[C@@H]1[C@@]3(C)CC[C@H](O[C@@H]4O[C@H](CO)[C@@H](O)[C@H](O)[C@H]4O[C@@H]4O[C@H](CO)[C@@H](O)[C@H](O)[C@H]4O)C(C)(C)[C@@H]3CC[C@]12C [GINSENOSIDE RB3] | 2650 |
